According to US11453667B2, “Pyridone-pyrimidine derivative acting as KRASG12C mutein inhibitor” (MEDSHINE DISCOVERY INC., priority 2018, dated 2022):
Like-named read-outs stand apart in the source and are kept apart here. Each block holds one compound with its values, some of them ahead of it.

What was measured:
[1] = reported in Cell, 2018, 172, 578-589; cited from earlier work
[2] = Rat pharmacokinetic evaluation experiment; format: in vivo; details: plasma, male SD rats; for AUC: read-out: AUC (exposure)
Excerpt: To determine the drug concentrations in plasma at different times after intravenous and intragastric administration of the test compounds to the rats by using the LC/MS/MS method and using male SD rats as the test animals; To study the pharmacokinetic behaviors of the test compounds in rats and to evaluate the pharmacokinetic characteristics thereof.
Experiment scheme: 10 healthy adult male SD rats were used as experimental animals and divided into 4 groups according to the principle of similar body weight, with 2 in each group of the group IV (two groups) and 3 in each group of the group PO (two groups). The animals were purchased from Beijing Vital River Laboratory Animal Technology Co., Ltd.
Group IV: an appropriate amount of samples were weighed; an appropriate amount of DMSO, PEG400 and water were added successively thereto according to the volume ratio of 10:60:30; and stirring was performed under sonication to reach a clear state of 1.5 mg/mL.
Group PO: an appropriate amount of samples were weighed; an appropriate amount of DMSO, PEG400 and water were added successively thereto according to the volume ratio of 10:60:30; and stirring was performed under sonication to reach a clear state of 1.0 mg/mL.
After fasting overnight, each rat in the group IV was administered intravenously with a volume of 2 mL/kg and a dose of 3 mg/kg; each rat in the group PO was administered intragastrically with a volume of 10 mL/kg and a dose of 10 mg/kg.
After each of the male SD rats in the group IV was administrated with the test compounds, 200 ul of blood samples were collected at 0.0833, 0.25, 0.5, 1, 2, 4, 6, 8 and 24 hours, and were placed in a commercial anticoagulation tube pre-loaded with EDTA-K2. After each rat in the group PO was administrated with the test compounds, 200 ul of blood samples were collected at 0.25, 0.5, 1, 2, 4, 6, 8 and 24 hours respectively, and were placed in a commercial anticoagulation tube pre-loaded with EDTA-K2. The test tube was centrifuged for 15 minutes to separate the plasma and stored at −60° C. 2 hours after administration, the animals can be fed. The content of the test compounds in plasma was determined by the LC/MS/MS method after intravenous and intragastric administration to the rats. The linear range of the method was from 2.00 to 6000 nM; plasma samples were analyzed after treatment of precipitating proteins by acetonitrile.
Note: Cl: clearance rate; Vd: volume of distribution; AUC: exposure; T1/2: half-life; Cmax: maximum compound concentration after oral administration; Tmax: time to reach Cmax; F: bioavailability.

[3] = tested on: human non-small cell lung cancer NCI-H358; assay: In vivo drug efficacy test (4): subcutaneous xenograft tumor model; parameters: species or system BALB/c nude mice; details: 15 mg/kg
Description: (§1) To evaluate the in vivo efficacy of the test compounds in a subcutaneous xenograft tumor model of human non-small cell lung cancer NCI-H358.
BALB/c nude mice, female, 6-8 weeks old, weighing 18-20 grams. A total of 40 were required. They were provided by Shanghai Lingchang Experimental Animal Co., Ltd ( ? ? ). NCI-H358 tumor cells were resuspended in PBS to prepare a cell suspension with a density of 5×10^7/mL, which was inoculated subcutaneously on the right back of each mouse (0.1 mL, 5×10^6/mouse) to wait for tumor growth. When the average tumor volume reached about 166 mm^3, randomized grouping and administration were performed, and the administration dose was shown in Table 8. The diameter of the tumor was measured with vernier calipers twice a week.
The formula for calculating the tumor volume is: V=0.5a×b^2, wherein a and b represent the long and short diameters of the tumor, respectively. The tumor suppressive effect of the compounds was evaluated by TGI (%). TGI (%) reflects the tumor growth inhibition rate. Calculation of TGI (%): TGI (%)=[(1−(average tumor volume at the end of administration in a treatment group−average tumor volume at the beginning of administration in the treatment group))/(average tumor volume at the end of treatment in the solvent control group−average tumor volume at the beginning of treatment in the solvent control group)]×100%.

KRAS G12C mutation = details: reported in Cell, 2018, 172, 578-589; cited from earlier work
[4] = tested on: pancreatic cancer MIA-Paca2 cell; details: reported in Cell, 2018, 172, 578-589; cited from earlier work
[5] = tested on: human pancreatic cancer x-MIA-PaCa2 cell; assay: In vivo drug efficacy test (3): subcutaneous xenograft tumor model; parameters: species or system NU/NU mice; details: 50 mg/kg
Description: To evaluate the in vivo efficacy of the test compounds in a subcutaneous xenograft tumor model of human pancreatic cancer x-MIA-PaCa2 cell.
NU/NU mice, female, 6-8 weeks old, weighing 17-20 grams. A total of 100 were required (additional 30% of animals were inoculated). They were provided by Beijing Vital River Science and Technology Co., Ltd. Each mouse was subcutaneously inoculated with 0.2 mL (10×10^6) of x-MIA-PaCa2 cells (plus matrigel, with the volume ratio being 1:1) on the right back. When the average tumor volume reached about 150 mm^3, grouping and administration were performed, and the administration dose was shown in Table 7. The diameter of the tumor was measured with vernier calipers twice a week. The formula for calculating the tumor volume is: V=0.5a×b^2, wherein a and b represent the long and short diameters of the tumor, respectively. The tumor suppressive effect of the compounds was evaluated by TGI (%). TGI (%) reflects the tumor growth inhibition rate. Calculation of TGI (%): TGI (%)=[(1−(average tumor volume at the end of administration in a treatment group−average tumor volume at the beginning of administration in the treatment group))/(average tumor volume at the end of treatment in the solvent control group−average tumor volume at the beginning of treatment in the solvent control group)]×100%.

[6] = tested on: human non-small cell lung cancer NCI-H358; assay: In vivo drug efficacy test (2): subcutaneous xenograft tumor model; parameters: species or system BALB/c nude mice; details: 100 mg/kg (0-6 days) + 50 mg/kg (7-20 days)
Description: as §1
BALB/c nude mice, female, 6-8 weeks old, weighing 18-21 grams. A total of 100 were required. They were provided by Shanghai Lingchang Experimental Animal Co., Ltd ( ? ? ). NCI-H358 tumor cells were resuspended in PBS to prepare 0.1 mL (5×10^6) of cell suspension, which was inoculated subcutaneously on the right back of each mouse (5×10^6/mouse) to wait for tumor growth. When the average tumor volume reached about 150-200 mm^3, randomized grouping and administration were performed, and the administration dose was shown in Table 6. The diameter of the tumor was measured with vernier calipers twice a week. The formula for calculating the tumor volume is: V=0.5a×b^2, wherein a and b represent the long and short diameters of the tumor, respectively. The tumor suppressive effect of the compounds was evaluated by TGI (%). TGI (%) reflects the tumor growth inhibition rate. Calculation of TGI (%): TGI (%)=[(1−(average tumor volume at the end of administration in a treatment group−average tumor volume at the beginning of administration in the treatment group))/(average tumor volume at the end of treatment in the solvent control group−average tumor volume at the beginning of treatment in the solvent control group)]×100%.

[7] = tested on: wild-type A375 human malignant melanoma cells; assay: Cell experiment: anti-proliferative activity, CellTiter-Glo, A375; format: cell-based; details: Homo sapiens, A-375, 120 h, 5 days culture
Description: (§2) This experiment is intended to verify that the compounds of the present invention have an inhibitory effect on the proliferation of NCI-H358 human non-small cell lung cancer cells with KRAS G12C mutation, MIA PaCa2 human pancreatic cancer cells with KRAS G12C mutation and wild-type A375 human malignant melanoma cells.
(§3) 40 μl of phosphate buffer was added to the peripheral wells of three 384-well microplates respectively, and 40 μl of cell suspension to be tested was added to the other wells of each plate respectively (plate 1: NCI-H358 cell suspension containing 500 NCI-H358 cells; plate 2: MIAPaCa2 cell suspension containing 300 MIAPaCa2 cells; plate 3: A375 cell suspension containing 300 A375 cells). The three cell plates were then placed in a carbon dioxide incubator and incubated overnight. Echo was used to perform a 3-fold gradient dilution of the compounds to be tested, and each compound was diluted with 10 concentration gradients (diluted from 50 μM to 0.003 μM), 100 nl of which was respectively added to the corresponding wells of the cell plates; after dosing, 40 μL of phosphate buffer was added to each well of rows A and P and columns 1 and 24, and then the cell plates were put back to the carbon dioxide incubator for culturing for 5 days. 20 μl of Promega CellTiter-Glo reagent per well was added to the cell plates, which was shaken at room temperature for 10 minutes in the dark to stabilize the luminescence signal. A PerkinElmer Envision multi-label analyzer was used for reading.
(§4) Data analysis: IC50 results were analyzed by GraphPad Prism 5.0 software […].

[8] = Liver microsome stability test, human; format: in vitro ADME; details: human liver microsomes, 0.5 mg protein/mL; read-out: Human T1/2
Description: (§5) To test the metabolic stability of the test article in mice, rats and human liver microsomes.
(§6) 1. 10 μL of the test or control article working solution was added to all plates (T0, T5, T10, T20, T30, T60, NCF60).
(§7) 2. Liver microsome solution was dispensed into a 96-well plate at 680 μL/well, and addition was performed on each plate at 80 μL/well, and the above-mentioned incubation plate was placed at 37° C. for pre-incubation for about 10 minutes.
(§8) 4. After the pre-incubation, the NADPH regeneration system working solution was dispensed into the 96-well plate at 90 μL/well, and addition was performed on each plate at 10 μL/well to start the reaction.
(§9) 5. Incubation was performed for an appropriate time (e.g., 5, 10, 20, 30 and 60 minutes).
(§10) 6. 300 μL of the stopping solution (refrigerated at 4° C., containing 100 ng/mL of tolbutamide and 100 ng/mL of labetalol) was respectively added to each sample well.
(§11) T1/2 and Clint(mic) were calculated by the following formula.
(§12) Ct is the concentration at time t, with t being the incubation time; C0 is the concentration at 0; Ke is the elimination rate constant; Clint(mic) is the intrinsic clearance rate of liver microsomes; and Clint(liver) is the hepatic intrinsic clearance rate. CLint(mic)=0.693/half-life/mg microsomal protein per mL (microsome concentration during incubation) CLint(liver)=CLint(mic)×mg microsomal protein/g liver weight×ratio of liver weight to body weight

[9] = Liver microsome stability test, mouse; format: in vitro ADME; details: mouse liver microsomes, 0.5 mg protein/mL; read-out: mouse T1/2
Description: as §5, §6, §7, §8, §9, §10, §11, §12

[10] = tested on: MIA PaCa2 human pancreatic cancer cells with KRAS G12C mutation; assay: Cell experiment: anti-proliferative activity, CellTiter-Glo, MIA PaCa2; format: cell-based; details: Homo sapiens, MIA PaCa-2, 120 h, 5 days culture
Description: as §2, §3, §4

[11] = Liver microsome stability test, rat; format: in vitro ADME; details: rat liver microsomes, 0.5 mg protein/mL; read-out: rat T1/2
Description: as §5, §6, §7, §8, §9, §10, §11, §12

[12] = tested on: human pancreatic cancer MIA-PaCa2 cell; assay: In vivo drug efficacy test (1): subcutaneous xenograft tumor model; parameters: species or system BALB/c nude mice; details: for TGI: day 20
Description: To evaluate the in vivo efficacy of the test compounds in a subcutaneous xenograft tumor model of human pancreatic cancer MIA-PaCa2 cell.
BALB/c nude mice, female, 6-8 weeks old, weighing approximately 18-22 grams. Each mouse was subcutaneously inoculated with 0.2 mL (1×10^7) of MIA-PaCa2 cells (plus matrigel, with the volume ratio being 1:1) on the right back. The administration was performed when the average tumor volume reached about 169 cubic millimeters. The tumor volume was measured twice a week, with the volume measured in cubic millimeters, and calculated by the following formula: V=0.5 a×b^2, where a and b were the long and short diameters of the tumor, respectively. The tumor suppressive effect of the compounds was evaluated by TGI (%). TGI (%) reflects the tumor growth inhibition rate. Calculation of TGI (%): TGI (%)=[(1−(average tumor volume at the end of administration in a treatment group−average tumor volume at the beginning of administration in the treatment group))/(average tumor volume at the end of treatment in the solvent control group−average tumor volume at the beginning of treatment in the solvent control group)]×100%.

[13] = tested on: NCI-H358 human non-small cell lung cancer cells with KRAS G12C mutation; assay: Cell experiment: anti-proliferative activity, CellTiter-Glo, NCI-H358; format: cell-based; details: Homo sapiens, NCI-H358, 120 h, 5 days culture
Description: as §2, §3, §4

SMILES: C=CC(=O)N1CCN(c2ncnc3c(F)c(-c4c(O)cccc4F)c(Cl)cc23)CC1 [ARS-1620, reference compound]
- metabolic stability [1]: good metabolic stability
- AUC ([2]; IV 3 mg/kg): 3.21 µM·h
- clearance ([2]; IV 3 mg/kg, read-out: Cl (clearance rate)): 36.3 mL/min/kg
- half-life ([2]; IV 3 mg/kg, read-out: T1/2 (half-life) (converted)): 27.7 min
- Vd ([2]; IV 3 mg/kg, read-out: Vd (volume of distribution)): 1.08 L/kg
- Cmax ([2]; PO 10 mg/kg): 1240 nM
- Tmax ([2]; PO 10 mg/kg): 20 min
- AUC ([2]; PO 10 mg/kg): 2.32 µM·h
- bioavailability ([2]; PO 10 mg/kg, read-out: F (bioavailability)): 22%
- Tumor volume (day 27) [3]: 492 mm^3
- TGI ([3]; day 27): 51.78%
- cellular anti-proliferative activity at the cellular level (KRAS G12C mutation): nM-level
- tumor growth in subcutaneous xenograft tumor model [4]: effectively inhibit tumor growth
- Tumor volume (day 14) [5]: 907 mm^3
- TGI ([5]; day 14): 50.36%
- Tumor volume (day 20) [6]: 216 mm^3
- TGI ([6]; day 20): 90.82%

- IC50 [7]: > 50 µM
- half-life [8]: > 145 min
- half-life [9]: > 145 min
- IC50 [10]: 6.48 µM
- half-life [11]: > 145 min
- IC50 [13]: 5.36 µM
SMILES: C=CC(=O)N1CCN(c2ncnc3c(=O)n(-c4c(O)cccc4F)c(C(F)(F)F)cc23)CC1 [Example 2]
- Tumor volume (day 20) ([12]; 50 mg/kg orally daily): 457 ± 94 mm^3
- TGI ([12]; 50 mg/kg orally daily): 35%
- Tumor volume (day 20) ([12]; 200 mg/kg orally daily): 307 ± 61 mm^3
- TGI ([12]; 200 mg/kg orally daily): 69%
